Experimental findings from ChEMBL document CHEMBL1201862, “PubChem BioAssay data set” (2004) are described below.

Assay [1] can be described thus: cytotoxicity toward HCT116 cells – cell-based, CellTiter-Glo luminescence, IC50, dose response (AID 1117332). The following applies: HCT-116. It is filed as functional.
Assay [2] concerns BJ. The experiment in a line: cells. In kind it is functional, cell-based. Conditions: Homo sapiens.
A short description of assay [3]: DRD fibroblast viability loss – cell-based, non-viral oncogenic, luminescence, dose response (AID 1934). It is filed as functional. The following applies: Homo sapiens.
A short description of assay [4]: SNU-C1 cell viability reduction, dose response, CellTiter-Glo luminescence (AID 1117323). In kind it is functional, cell-based.
Assay [5] in a line: CellTiter-Glo luminescence survival assay, SW480 colon tumor line, concentration-response curve, half-maximal inhibitory concentration (AID 1117338). It is filed as functional.
A short description of assay [6]: alpha-synuclein stem-loop luciferase translation blockers – H4 neuroglioma cells, luminescence, confirmation (AID 1988). In kind it is functional, cell-based.
The nature of assay [7]: luciferase reporter signal suppression in cells – H4 neuroglioma cells, luminescence, dose response (AID 1990). In kind it is functional, cell-based.
The subject of assay [8] is BJ. The experiment in a line: BJ-TERT fibroblast viability loss – cell-based, RAS-independent, luminescence, dose response (AID 1933). The following applies: Homo sapiens. In kind it is functional.
Assay [9] has as its target T1, Replicative DNA helicase DnaB (Mycobacterium tuberculosis, UniProt P9WMR3).
T1 sequence (P9WMR3 whole entry): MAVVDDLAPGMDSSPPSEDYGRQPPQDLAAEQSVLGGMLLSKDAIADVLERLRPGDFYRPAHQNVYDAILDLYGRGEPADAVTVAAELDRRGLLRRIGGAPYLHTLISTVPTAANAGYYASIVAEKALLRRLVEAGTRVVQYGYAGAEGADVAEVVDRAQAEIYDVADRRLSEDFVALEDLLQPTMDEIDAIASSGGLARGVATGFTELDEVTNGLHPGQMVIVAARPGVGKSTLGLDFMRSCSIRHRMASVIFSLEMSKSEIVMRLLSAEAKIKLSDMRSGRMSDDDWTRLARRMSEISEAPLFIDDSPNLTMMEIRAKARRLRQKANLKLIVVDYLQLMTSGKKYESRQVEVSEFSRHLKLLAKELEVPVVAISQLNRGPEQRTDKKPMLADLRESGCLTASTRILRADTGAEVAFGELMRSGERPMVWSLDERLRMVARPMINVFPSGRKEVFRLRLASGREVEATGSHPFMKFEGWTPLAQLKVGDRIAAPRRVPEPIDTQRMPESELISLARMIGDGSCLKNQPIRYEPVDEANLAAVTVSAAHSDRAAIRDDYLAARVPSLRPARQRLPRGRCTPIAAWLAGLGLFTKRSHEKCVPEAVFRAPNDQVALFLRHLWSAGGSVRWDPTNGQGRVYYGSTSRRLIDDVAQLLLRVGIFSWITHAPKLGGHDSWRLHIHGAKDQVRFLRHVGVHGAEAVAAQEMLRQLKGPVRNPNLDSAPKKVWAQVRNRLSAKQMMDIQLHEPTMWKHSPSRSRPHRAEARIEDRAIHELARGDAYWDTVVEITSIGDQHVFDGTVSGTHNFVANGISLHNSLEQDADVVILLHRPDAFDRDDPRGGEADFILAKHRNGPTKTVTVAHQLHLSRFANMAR
Nature of the assay: DnaB intein splicing inhibitors, dose response, biochemical, cell-free fluorescence (AID 449749). In kind it is functional.

For a further assay, the target named is T2, Caspase-3 (Homo sapiens, UniProt P42574).
T2 sequence (P42574 whole entry): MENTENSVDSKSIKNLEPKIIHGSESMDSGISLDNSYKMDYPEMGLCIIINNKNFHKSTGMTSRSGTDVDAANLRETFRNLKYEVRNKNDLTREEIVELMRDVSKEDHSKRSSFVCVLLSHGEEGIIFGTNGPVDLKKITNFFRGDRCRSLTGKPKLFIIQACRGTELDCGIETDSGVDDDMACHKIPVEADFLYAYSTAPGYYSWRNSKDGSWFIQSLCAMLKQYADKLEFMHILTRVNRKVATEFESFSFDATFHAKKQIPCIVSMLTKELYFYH
The experiment in a line: SAR Analysis of small molecule inhibitors of Sentrin-specific proteases (SENPs) using a Caspase-3 Selectivity assay. [Related pubchem assays (depositor defined):AID2540, AID2599, AID434973, AID489001]. In kind it is functional.

The target of assay [10] is Intestinal-type alkaline phosphatase (Mus musculus, UniProt P24822). Nature of the assay: PubChem AID 488785. It is filed as functional.
Assay [11] deals with T3, Sentrin-specific protease 8 (Homo sapiens, UniProt Q96LD8).
T3 sequence (Q96LD8 whole entry): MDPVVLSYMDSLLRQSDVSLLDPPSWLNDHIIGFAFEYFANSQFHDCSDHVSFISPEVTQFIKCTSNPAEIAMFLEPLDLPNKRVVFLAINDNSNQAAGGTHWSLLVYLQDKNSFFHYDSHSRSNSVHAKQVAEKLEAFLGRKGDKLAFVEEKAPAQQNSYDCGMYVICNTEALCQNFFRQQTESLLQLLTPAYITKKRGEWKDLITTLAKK
Nature of the assay: inhibition of human SENP8 cleavage activity – biochemical, luminescence, SAR follow-up (AID 504501). It is filed as functional.

For assay [12], the target named is T4, Sentrin-specific protease 7 (Homo sapiens, UniProt Q9BQF6).
T4 sequence (Q9BQF6 whole entry): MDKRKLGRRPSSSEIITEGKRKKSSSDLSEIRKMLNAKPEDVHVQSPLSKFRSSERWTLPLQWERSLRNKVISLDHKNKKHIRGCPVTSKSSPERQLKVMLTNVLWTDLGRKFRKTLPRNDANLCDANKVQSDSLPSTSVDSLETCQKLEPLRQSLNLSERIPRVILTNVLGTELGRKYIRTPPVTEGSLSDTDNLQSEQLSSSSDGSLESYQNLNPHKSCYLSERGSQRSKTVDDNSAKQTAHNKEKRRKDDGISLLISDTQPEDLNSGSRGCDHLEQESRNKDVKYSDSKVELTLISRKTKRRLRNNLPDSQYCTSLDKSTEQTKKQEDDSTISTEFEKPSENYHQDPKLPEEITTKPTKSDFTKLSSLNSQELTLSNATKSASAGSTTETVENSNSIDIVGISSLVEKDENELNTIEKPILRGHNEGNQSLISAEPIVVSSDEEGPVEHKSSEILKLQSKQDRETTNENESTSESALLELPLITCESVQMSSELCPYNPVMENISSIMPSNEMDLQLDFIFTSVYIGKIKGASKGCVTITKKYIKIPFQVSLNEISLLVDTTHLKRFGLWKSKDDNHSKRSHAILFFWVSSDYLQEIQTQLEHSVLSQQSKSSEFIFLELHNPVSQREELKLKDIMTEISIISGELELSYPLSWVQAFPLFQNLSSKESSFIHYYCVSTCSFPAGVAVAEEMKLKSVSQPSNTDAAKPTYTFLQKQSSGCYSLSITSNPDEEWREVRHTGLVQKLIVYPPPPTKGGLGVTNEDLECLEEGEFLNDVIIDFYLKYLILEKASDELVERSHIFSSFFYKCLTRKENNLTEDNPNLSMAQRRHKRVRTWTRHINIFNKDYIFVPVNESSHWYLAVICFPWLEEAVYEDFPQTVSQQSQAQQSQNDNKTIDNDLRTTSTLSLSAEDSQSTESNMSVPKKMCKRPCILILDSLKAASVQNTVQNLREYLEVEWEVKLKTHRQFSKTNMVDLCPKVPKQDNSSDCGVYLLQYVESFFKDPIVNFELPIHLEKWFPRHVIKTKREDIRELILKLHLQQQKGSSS
Nature of the assay: inhibition of human SENP7 cleavage activity – biochemical, luminescence, SAR follow-up (AID 504497). In kind it is functional.

In assay [13] the target is T3, Sentrin-specific protease 8. In kind it is functional.

Structures are written as SMILES. Where “and” joins values, the source holds several entries; their conditions need not be identical. Identical values can stand only once. Calls of active or inactive are those of the source.

Chain of Intestinal-type alkaline phosphatase (P24822 whole entry): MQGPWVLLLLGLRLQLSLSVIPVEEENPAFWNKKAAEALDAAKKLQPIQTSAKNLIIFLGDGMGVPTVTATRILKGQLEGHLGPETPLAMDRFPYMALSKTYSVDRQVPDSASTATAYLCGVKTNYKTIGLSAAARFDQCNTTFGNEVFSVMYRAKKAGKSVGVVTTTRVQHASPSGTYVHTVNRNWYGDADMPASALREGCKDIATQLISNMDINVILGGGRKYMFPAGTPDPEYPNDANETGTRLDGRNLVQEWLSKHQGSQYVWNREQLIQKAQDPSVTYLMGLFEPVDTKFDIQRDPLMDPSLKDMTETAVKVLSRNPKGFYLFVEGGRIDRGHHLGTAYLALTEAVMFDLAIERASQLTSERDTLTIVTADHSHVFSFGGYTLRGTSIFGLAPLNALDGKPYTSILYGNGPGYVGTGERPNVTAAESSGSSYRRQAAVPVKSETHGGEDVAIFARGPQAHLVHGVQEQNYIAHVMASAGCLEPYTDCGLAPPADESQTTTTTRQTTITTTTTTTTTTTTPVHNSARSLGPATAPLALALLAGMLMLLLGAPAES

With `Cc1cc2nc3ccc(N(C)C)cc3[s+]c2cc1N` [TOLONIUM CHLORIDE], the IC50 in assay [1] is 2.78 µM (active); in assay [4] it was 5.56 µM (inactive); in assay [5], 1.4 µM (active). The EC50 in the assay with BJ [2] was 7.39 µM (active); in assay [3], 8.46 µM (inconclusive); in assay [6], 7.13 µM (active); in assay [7], 8.36 µM (active); in the assay with BJ [8] it was 5.74 µM (active). In addition, the AC50 in assay [9] was 77.1 µM (active).
Regarding `Oc1ccc(/C=N/Nc2cc(N3CCCC3)nc(N3CCCC3)n2)cc1O`, the IC50 at Caspase-3 was > 99 µM (inactive); in [10], 1.51 µM (active); in [11] it was > 99 µM (inactive); in [12], 58.1 µM (active) and 39.7 µM (active).
As to `CCCOc1cc2c(C#N)c(N3CCCC3)nc(N)c2c(N)n1`, the IC50 in [13] is 4.32 µM (active).
